Measurements taken from patent US8507219B2, “Method of treating inflammation with statins” (MUSC Foundation for Research Development, priority 1997, dated 2013).
Values joined by “and” are separate entries in the source; they are usually repeats but may differ in a detail not shown here. Identical values can stand only once. Like-named read-outs stand apart in the source and are kept apart here.

Columns and labels:
[1] = tested on: NO production in rat C6 glial cells; assay: LPS-/cytokine-induced NO production (nitrite) in C6 glial cells; assay type: cell-based; details: for Nitrite / inhibition at 20000 µM: C6 glial cells, NAC 20 mM 2 h prior; for Nitrite: 24 h; for inhibition at 20000 µM: Rattus norvegicus, Glial cell
[2] = tested on: TNF-α production in rat primary astrocytes; assay: LPS-induced TNF-α production (ELISA) in rat primary astrocytes; assay type: cell-based
Experimental: (§1) Determination of TNF-α and IL-1β in culture supernatants Cells were stimulated with LPS in serum-free media for 24 h in the presence or absence of forskolin or rolipram, and concentrations of TNF-α and IL-1β were measured in culture supernatants by using high-sensitivity enzyme-linked immunosorbent assay (R&D Systems, USA) according to the manufacturer's instructions.

[3] = tested on: TNF-α production in rat primary microglia; assay: LPS-induced TNF-α production (ELISA) in rat primary microglia; assay type: cell-based
Experimental: as §1

[4] = tested on: IL-1β production in rat primary microglia; assay: LPS-induced IL-1β production (ELISA) in rat primary microglia; assay type: cell-based
Experimental: as §1

[5] = tested on: cultured skin fibroblasts of X-ALD; assay: β-oxidation of lignoceric acid in cultured skin fibroblasts of X-ALD; assay type: cell-based, human
NF-kβ = assay type: cell-based, rat
Experimental: Preparation of Nuclear Extracts and Electrophoretic Mobility shift assay Nuclear extracts from stimulated or unstimulated astrocytes (1×10^7 cells) were prepared using the method of Dignam et al. (1983) with slight modification. Cells were harvested, washed twice with ice-cold phosphate-buffered saline and lysed in 400 μl of buffer A (10 mM HEPES, pH 7.9, 10 mM KCl, 2 mM MgCl2, 0.5 mM DTT, 1 mM PMSF, 5 μg/ml aprotinin, 5 μg/ml pepstatin A, and 5 μg/ml leupeptin (Sigma, St. Louis, Mo.) containing 0.1% Nondet P-40 for 15 min on ice, vortexed vigorously for 15 s, and centrifuged at 14,000 rpm for 30 s. The pelleted nuclei were resuspended in 40 μl of buffer B (20 mM HEPES, pH 7.9, 25% (v/v) glycerol, 0.42 M NaCl, 1.5 mM MgCl2, 0.2 mM EDTA, 0.5 mM DTT, 1 mM PMSF, 5 μg/ml aprotinin, 5 μg/ml pepstatin A, and 5 μg/ml leupeptin). After 30 min on ice, lysates were centrifuged at 14,000 rpm for 10 min. Supernatants containing the nuclear proteins were diluted with 20 μl of modified buffer C (20 mM HEPES, pH 7.9, 20% (v/v) glycerol, 0.05 M KCl, 0.2 mM EDTA, 0.5 mM DTT, and 0.5 mM PMSF) and stored at −70° C. until use. Nuclear extracts were used for the electrophoretic mobility shift assay using the NF-kβ DNA binding protein detection system kit (GIBCO/BRL), according to the manufacturer's protocol.
Preparation of nuclear extracts and electrophoretic mobility shift assay Nuclear extracts from stimulated or unstimulated astrocytes (1×10^7 cells) were prepared as described (Dignam et al., 1983) with slight modification. Cells were harvested, washed twice with ice-cold phosphate-buffered saline and lysed in 400 μl of buffer A (10 mM HEPES, pH 7.9, 10 mM KCl, 2 mM MgCl2, 0.5 mM DTT, 1 mM PMSF, 5 μg/ml aprotinin, 5 μg/ml pepstatin A, and 5 μg/ml leupeptin) containing 0.1% Nonidet P40 for 15 min on ice, vortexed vigorously for 15 s, and centrifuged at 14,000 rpm for 30 s. […]

[6] = Microglia, 10 μM lovastatin or 5 mM NaPA 8 h, then LPS 1.0 μg/ml, 24 h

## CC[C@H](C)C(=O)O[C@H]1C[C@@H](C)C=C2C=C[C@H](C)[C@H](CC[C@@H]3C[C@@H](O)CC(=O)O3)[C@H]21 [Lovastatin]
[1]
  LPS- and cytokine-induced NO production: inhibit LPS- and cytokine-induced NO production in rat C6 glial cells
[2]; Astrocytes, 10 μM lovastatin or 5 mM NaPA 8 h, then LPS 1.0 μg/ml, 24 h
  Production of TNF-α: 0.3 ± 0.05 ng/24 h/mg protein
[3]; [6]
  Production of TNF-α: 0.9 ± 0.1 ng/24 h/mg protein
[4]; [6]
  Production of IL-1β: 2.1 ± 0.3 ng/24 h/mg protein
[5]; 72 h, lovastatin 5 μM, NaPA 5 mM (highest doses found to stimulate)
  stimulation of lignoceric acid β-oxidation: 70%
[5]; ALDS2, 15 days, 5 μM lovastatin, 5 mM NaPA or the combination of 2 μM lovastatin and 2 mM NaPA, Control 142.7 ± 15.7
  Lignoceric acid β-oxidation: 223.5 ± 24.1 pmol/h/mg protein
[5]; ALDS2, 15 days, 5 μM lovastatin, 5 mM NaPA or the combination of 4 μM forskolin and 2 mM NaPA, Control 142.7 ± 15.7
  Lignoceric acid β-oxidation: 223.5 ± 24.1 pmol/h/mg protein
[5]; ALDS3, 15 days, 5 μM lovastatin, 5 mM NaPA or the combination of 2 μM lovastatin and 2 mM NaPA, Control 122.3 ± 11.7
  Lignoceric acid β-oxidation: 201.3 ± 22.3 pmol/h/mg protein
[5]; ALDS3, 15 days, 5 μM lovastatin, 5 mM NaPA or the combination of 4 μM forskolin and 2 mM NaPA, Control 122.3 ± 11.7
  Lignoceric acid β-oxidation: 201.3 ± 22.3 pmol/h/mg protein
[5]; ALDS4, 15 days, 5 μM lovastatin, 5 mM NaPA or the combination of 2 μM lovastatin and 2 mM NaPA, Control 118.5 ± 12.6
  Lignoceric acid β-oxidation: 192.8 ± 20.5 pmol/h/mg protein
[5]; ALDS4, 15 days, 5 μM lovastatin, 5 mM NaPA or the combination of 4 μM forskolin and 2 mM NaPA, Control 118.5 ± 12.6
  Lignoceric acid β-oxidation: 192.8 ± 20.5 pmol/h/mg protein
[5]; ALDS5, 15 days, 5 μM lovastatin, 5 mM NaPA or the combination of 2 μM lovastatin and 2 mM NaPA, Control 154.2 ± 14.2
  Lignoceric acid β-oxidation: 248.2 ± 26.2 pmol/h/mg protein
[5]; ALDS5, 15 days, 5 μM lovastatin, 5 mM NaPA or the combination of 4 μM forskolin and 2 mM NaPA, Control 154.2 ± 14.2
  Lignoceric acid β-oxidation: 248.2 ± 26.2 pmol/h/mg protein
[5]; ALDS6, 15 days, 5 μM lovastatin, 5 mM NaPA or the combination of 2 μM lovastatin and 2 mM NaPA, Control 132.4 ± 15.9
  Lignoceric acid β-oxidation: 218.3 ± 19.8 pmol/h/mg protein
[5]; ALDS6, 15 days, 5 μM lovastatin, 5 mM NaPA or the combination of 4 μM forskolin and 2 mM NaPA, Control 132.4 ± 15.9
  Lignoceric acid β-oxidation: 218.3 ± 19.8 pmol/h/mg protein
NF-kβ; LPS 1.0 μg/ml, 1 h
  LPS-induced activation of NF-kβ: markedly inhibited for the LPS-induced activation of NF-kβ

## CC(=O)N[C@@H](CS)C(=O)O [NAC, N-acetyl cysteine]
[1]; stimulus LPS + IFN-γ
  Nitrite: 8.2 ± 1.4 nmol/mg/24 h
  inhibition at 20000 µM: 74%
[1]; stimulus LPS + IL-1β
  Nitrite: 5.8 ± 1.2 nmol/mg/24 h
  inhibition at 20000 µM: 75%
[1]; stimulus LPS + TNF-α
  Nitrite: 7.1 ± 1.1 nmol/mg/24 h
  inhibition at 20000 µM: 79%
[1]; stimulus TNF-α + IFN-γ
  Nitrite: 8.4 ± 2.1 nmol/mg/24 h
  inhibition at 20000 µM: 73%
[1]; stimulus TNF-α + IL-1β
  Nitrite: 4.2 ± 0.8 nmol/mg/24 h
  inhibition at 20000 µM: 80%

## O=C([O-])Cc1ccccc1.[Na+] [NaPA, sodium salt of phenylacetic acid]
[2]
  Production of TNF-α: 0.4 ± 0.06 ng/24 h/mg protein
[3]
  Production of TNF-α: 1.3 ± 0.2 ng/24 h/mg protein
[4]
  Production of IL-1β: 2.4 ± 0.2 ng/24 h/mg protein
[5]
  Lignoceric acid β-oxidation: 211.5 ± 22.6 pmol/h/mg protein and 189.7 ± 21.2 pmol/h/mg protein and 183.2 ± 17.3 pmol/h/mg protein and 178.9 ± 18.3 pmol/h/mg protein and 202.5 ± 17.4 pmol/h/mg protein
  stimulation of lignoceric acid β-oxidation: 40%
NF-kβ
  LPS-induced activation of NF-kβ: markedly inhibited for the LPS-induced activation of NF-kβ
